Patent publication US20210379085A1, “HALOGENATED SALICYLANILIDES FOR TREATING THE SYMPTOMS OF DERMATITIS” (Union Therapeutics A/S, priority 2018, published 2021)

What was measured:
[1] = tested on: skin barrier and inflammation biomarkers in lesional skin biopsies; assay: Microarray (Affymetrix U133A Plus 2) biomarker gene expression in lesional skin biopsies (Example 3); format: in vivo, human
Protocol: (§1) Patients received topical applications of a niclosamide 2% composition and vehicle once daily for 3 weeks, followed by a 1-week follow up period. Topical niclosamide 2% and vehicle was applied on two separate target lesions of atopic dermatitis (lesions of at least 3×3-cm that are at least 2 cm apart, excluding the face, scalp, genitals, hands, and feet). The application areas (5×5-cm) were randomized (1:1) to once daily application of niclosamide 2% or vehicle at 5 mg/cm^2 without occlusion 6 days per week. Patients came to the study site for all study product application for a total of 3 weeks.
(§2) Skin barrier and inflammation biomarker levels were determined from lesional skin biopsies from application areas.
(§3) The skin biopsy samples were analysed by immunohistochemistry (IHC), and by gene expression studies by RT-PCR using TaqMan Low Density Array (TLDA), and by microarray using Affymetrix U133A Plus 2. The immunohistochemistry (IHC) was used to analyse cell biomarkers. The methodologies as disclosed by Guttman-Yassky et al, “Major differences in inflammatory dendritic cells and their products distinguish atopic dermatitis from psoriasis”, The Journal of Allergy and Clinical Immunology, vol. 119, issue 5, pages 1210-1217, 2007, were followed except for that U133A Plus 2-set Gene Chip probe arrays was used instead of U95A-set Gene Chip probe arrays.
Experimental design: The hybridization strategy was in concordance with experimental design principles, by for example keeping all samples from the same patient in the same date, and always include samples from every treatment arm/group.
Quality Control and Pre-processing: Quality control of microarray chips were carried out using standard QC metrics and R package microarray Quality Control. Expression measures were obtained using GCRMA algorithm (Wu & Irizarry, 2004). Several visual and modelling techniques were used to elucidate if batch effect existed. Principal Component analysis plots were used to detect if any evident batch effect existed. If such batch effects were found, they were adjusted using Combat, an empirical Bayes method for adjusting data for batch effects that is robust to outliers in small sample sizes (Johnson, Li, & Rabinovic, 2007). The implementation of Combat by package sva was used.
Probe-sets with at least 5% samples with expression larger than 3 (in log 2-scale) were kept for further analysis. Expression values were modelled using mixed-effect models with fixed factors Visit and Treatment Area and a random effect for each patient. Fold changes for the comparisons of interest were estimated and hypothesis testing was conducted on such comparisons using contrasts under the general framework for linear models in limma package. The inter-replicate correlation was computed by Duplicate Correlation function and the linear model was estimated by ImFit. P-values from the moderated (paired) t-test were adjusted for multiple hypotheses using the Benjamini-Hochberg procedure, which controls for FDR.

[2] = tested on: immune cell infiltrates (CD3, langerin, CD11c, FceR1) in lesional skin; assay: Immunohistochemistry (IHC) of cell biomarkers in lesional skin biopsies (Example 3); format: in vivo, human; settings: topical 2% niclosamide
Protocol: as §1, §2, §3

[3] = Day 22, topical administration of 2% niclosamide, p<0.05
[4] = fold change, Day 22, vehicle-treated vs niclosamide-treated lesion, topical niclosamide 2% once daily 3 weeks, AD lesional skin
[5] = fold change, Day 22 vs baseline, topical niclosamide 2% once daily 3 weeks, AD lesional skin
[6] = Day 22 compared to baseline (pre-dosing at Day 1)

Compound: O=C(Nc1ccc([N+](=O)[O-])cc1Cl)c1cc(Cl)ccc1O [Niclosamide, niclosamide]
- CXCL1 downregulation, 2% niclosamide compared to vehicle (microarray values) [1, 3]: −2.10
- PI3 downregulation, 2% niclosamide compared to vehicle (microarray values) [1, 3]: −1.87
- S100A9 downregulation, 2% niclosamide compared to vehicle (microarray values) [1, 3]: −1.88
- S100A12 downregulation, 2% niclosamide compared to vehicle (microarray values) [1, 3]: −2.30
- ACOT2 expression, Vehicle vs. Niclosamide (Microarray) [1, 4]: −1.35
- ACOX2 expression, Vehicle vs. Niclosamide (Microarray) [1, 4]: −1.40
- CCL2 expression, Vehicle vs. Niclosamide (Microarray) [1, 4]: 1.56
- CCL13 expression, Vehicle vs. Niclosamide (Microarray) [1, 4]: 1.32
- CCL18 expression, Vehicle vs. Niclosamide (Microarray) [1, 4]: 1.66
- CCL20 expression, Vehicle vs. Niclosamide (Microarray) [1, 4]: 2.00
- CCL23 expression, Vehicle vs. Niclosamide (Microarray) [1, 4]: 1.63
- CCL26 expression, Vehicle vs. Niclosamide (Microarray) [1, 4]: 1.69
- CCR1 expression, Vehicle vs. Niclosamide (Microarray) [1, 4]: 1.55
- CCR6 expression, Vehicle vs. Niclosamide (Microarray) [1, 4]: 1.31
- CXCL1 expression, Vehicle vs. Niclosamide (Microarray) [1, 4]: 2.10
- DGAT2 expression, Vehicle vs. Niclosamide (Microarray) [1, 4]: −1.19
- ELOVL3 expression, Vehicle vs. Niclosamide (Microarray) [1, 4]: −1.66
- FA2H expression, Vehicle vs. Niclosamide (Microarray) [1, 4]: −1.57
- FAR2 expression, Vehicle vs. Niclosamide (Microarray) [1, 4]: −1.47
- FAXDC2 expression, Vehicle vs. Niclosamide (Microarray) [1, 4]: −1.29
- IFNGR2 expression, Vehicle vs. Niclosamide (Microarray) [1, 4]: 1.10
- IL1F10 expression, Vehicle vs. Niclosamide (Microarray) [1, 4]: −1.79
- IL4R expression, Vehicle vs. Niclosamide (Microarray) [1, 4]: 1.29
- IL26 expression, Vehicle vs. Niclosamide (Microarray) [1, 4]: 1.78
- KRT79 expression, Vehicle vs. Niclosamide (Microarray) [1, 4]: −2.00
- LCN2 expression, Vehicle vs. Niclosamide (Microarray) [1, 4]: 1.69
- PI 3 expression, Vehicle vs. Niclosamide (Microarray) [1, 4]: 1.87
- PNPLA3 expression, Vehicle vs. Niclosamide (Microarray) [1, 4]: −1.79
- PPARG expression, Vehicle vs. Niclosamide (Microarray) [1, 4]: −1.55
- S100A9 expression, Vehicle vs. Niclosamide (Microarray) [1, 4]: 1.88
- S100A12 expression, Vehicle vs. Niclosamide (Microarray) [1, 4]: 2.30
- SPTLC3 expression, Vehicle vs. Niclosamide (Microarray) [1, 4]: −1.30
- STAT1 expression, Vehicle vs. Niclosamide (Microarray) [1, 4]: 1.13
- STAT3 expression, Vehicle vs. Niclosamide (Microarray) [1, 4]: 1.16
- TNFSF4 expression, Vehicle vs. Niclosamide (Microarray) [1, 4]: 1.35
- ACER1 expression, Niclosamide vs Predose (Microarray) [1, 5]: 1.94
- ACOX2 expression, Niclosamide vs Predose (Microarray) [1, 5]: 1.40
- ACSL1 expression, Niclosamide vs Predose (Microarray) [1, 5]: 1.21
- ANXA6 expression, Niclosamide vs Predose (Microarray) [1, 5]: −1.24
- ANXA9 expression, Niclosamide vs Predose (Microarray) [1, 5]: 1.56
- CCL2 expression, Niclosamide vs Predose (Microarray) [1, 5]: −1.77
- CCL13 expression, Niclosamide vs Predose (Microarray) [1, 5]: −1.40
- CCL18 expression, Niclosamide vs Predose (Microarray) [1, 5]: −1.70
- CCL19 expression, Niclosamide vs Predose (Microarray) [1, 5]: −1.56
- CCL22 expression, Niclosamide vs Predose (Microarray) [1, 5]: −1.83
- CCR1 expression, Niclosamide vs Predose (Microarray) [1, 5]: −1.90
- CCR2 expression, Niclosamide vs Predose (Microarray) [1, 5]: −1.37
- CCR5 expression, Niclosamide vs Predose (Microarray) [1, 5]: −1.40
- CCR6 expression, Niclosamide vs Predose (Microarray) [1, 5]: −1.33
- CCR7 expression, Niclosamide vs Predose (Microarray) [1, 5]: −1.51
- CD2 expression, Niclosamide vs Predose (Microarray) [1, 5]: −1.56
- CD3D expression, Niclosamide vs Predose (Microarray) [1, 5]: −1.63
- CD3G expression, Niclosamide vs Predose (Microarray) [1, 5]: −1.62
- CD28 expression, Niclosamide vs Predose (Microarray) [1, 5]: −1.72
- CD86 expression, Niclosamide vs Predose (Microarray) [1, 5]: −1.60
- CDSN expression, Niclosamide vs Predose (Microarray) [1, 5]: 1.14
- CERS3 expression, Niclosamide vs Predose (Microarray) [1, 5]: 1.13
- CLDN1 expression, Niclosamide vs Predose (Microarray) [1, 5]: 1.17
- CLDN23 expression, Niclosamide vs Predose (Microarray) [1, 5]: 1.42
- CLN8 expression, Niclosamide vs Predose (Microarray) [1, 5]: 1.15
- CXCL1 expression, Niclosamide vs Predose (Microarray) [1, 5]: −2.83
- CXCL2 expression, Niclosamide vs Predose (Microarray) [1, 5]: −1.81
- DGAT2 expression, Niclosamide vs Predose (Microarray) [1, 5]: 1.33
- DHCR7 expression, Niclosamide vs Predose (Microarray) [1, 5]: 1.12
- ELOVL3 expression, Niclosamide vs Predose (Microarray) [1, 5]: 1.81
- EREG expression, Niclosamide vs Predose (Microarray) [1, 5]: 1.19
- FA2H expression, Niclosamide vs Predose (Microarray) [1, 5]: 1.50
- FAR2 expression, Niclosamide vs Predose (Microarray) [1, 5]: 1.48
- FAXDC2 expression, Niclosamide vs Predose (Microarray) [1, 5]: 1.46
- FLG expression, Niclosamide vs Predose (Microarray) [1, 5]: 1.17
- IFNGR2 expression, Niclosamide vs Predose (Microarray) [1, 5]: −1.13
- IL1F10 expression, Niclosamide vs Predose (Microarray) [1, 5]: 1.98
- IL2RA expression, Niclosamide vs Predose (Microarray) [1, 5]: −1.27
- IL4R expression, Niclosamide vs Predose (Microarray) [1, 5]: −1.80
- IL6R expression, Niclosamide vs Predose (Microarray) [1, 5]: −1.25
- IL7R expression, Niclosamide vs Predose (Microarray) [1, 5]: −1.58
- IL12RB2 expression, Niclosamide vs Predose (Microarray) [1, 5]: −1.21
- IL24 expression, Niclosamide vs Predose (Microarray) [1, 5]: −2.19
- IL37 expression, Niclosamide vs Predose (Microarray) [1, 5]: 1.69
- IRF1 expression, Niclosamide vs Predose (Microarray) [1, 5]: −1.37
- KRT23 expression, Niclosamide vs Predose (Microarray) [1, 5]: 1.26
- KRT77 expression, Niclosamide vs Predose (Microarray) [1, 5]: 1.43
- KRT79 expression, Niclosamide vs Predose (Microarray) [1, 5]: 1.91
- LCN2 expression, Niclosamide vs Predose (Microarray) [1, 5]: −1.62
- MMP12 expression, Niclosamide vs Predose (Microarray) [1, 5]: −2.81
- PI 3 expression, Niclosamide vs Predose (Microarray) [1, 5]: −3.13
- PNPLA3 expression, Niclosamide vs Predose (Microarray) [1, 5]: 1.91
- PPL expression, Niclosamide vs Predose (Microarray) [1, 5]: 1.06
- S100A7 expression, Niclosamide vs Predose (Microarray) [1, 5]: −1.17
- S100A8 expression, Niclosamide vs Predose (Microarray) [1, 5]: −1.45
- S100A9 expression, Niclosamide vs Predose (Microarray) [1, 5]: −2.81
- S100A12 expression, Niclosamide vs Predose (Microarray) [1, 5]: −3.62
- S100P expression, Niclosamide vs Predose (Microarray) [1, 5]: −1.35
- SCEL expression, Niclosamide vs Predose (Microarray) [1, 5]: 1.43
- SERPINB1 expression, Niclosamide vs Predose (Microarray) [1, 5]: −1.29
- SERPINB4 expression, Niclosamide vs Predose (Microarray) [1, 5]: −1.54
- SPTLC3 expression, Niclosamide vs Predose (Microarray) [1, 5]: 1.44
- STAT3 expression, Niclosamide vs Predose (Microarray) [1, 5]: −1.13
- TJP3 expression, Niclosamide vs Predose (Microarray) [1, 5]: 1.51
- TNFSF4 expression, Niclosamide vs Predose (Microarray) [1, 5]: −1.64
- inflammatory cells (dendritic cells: CD11c, FceR1 in epidermis, and Langerhans cells: langerin/CD207) [2, 6]: Significant reductions
- total amount of T cells (CD3) in dermis and epidermis [2, 6]: No significant change
- CD11c Dermis expression level ([2]; Day 22 compared to baseline, clinically correlated to TSS): significantly changed
